Legend:
[1] = Liquid
[2] = xn = mol fraction of the nth substance listed; settings: Liquid, x2 = 0

COCCOCCOCCOC [2,5,8,11-tetraoxadodecane]
[1]
Settings	mass density, 303.15 K [kg/m3]	mass density, 313.15 K [kg/m3]	mass density, 323.15 K [kg/m3]	mass density, 333.15 K [kg/m3]	mass density, 343.15 K [kg/m3]	viscosity, 303.15 K [mPa·s]	viscosity, 313.15 K [mPa·s]	viscosity, 323.15 K [mPa·s]	viscosity, 333.15 K [mPa·s]	viscosity, 343.15 K [mPa·s]
101 kPa	–	–	–	–	–	1.77	1.48	1.26	1.08	0.945
101.3 kPa	975.86	966.36	956.85	947.32	937.72	–	–	–	–	–

CC(=O)N1CCOCC1 [4-acetylmorpholine]
[1], 101 kPa
Settings	mass density [kg/m3]	viscosity [mPa·s]
298.15 K	1110.33	8.48
303.15 K	1106	7.1
313.15 K	1097.35	5.18
323.15 K	1088.74	3.96
333.15 K	1080.14	3.12
343.15 K	1071.55	2.55

O [water] + CC(=O)N1CCOCC1
[2], 101 kPa
Settings	mass density [kg/m3]	viscosity [mPa·s]
298.15 K	–	0.8903
303.15 K	–	0.7976
313.15 K	–	0.6531
323.15 K	988.04	0.547
333.15 K	983.12	0.466
343.15 K	977.77	0.4049

O [water] + COCCOCCOCCOC
[2]
Settings	mass density, 323.15 K [kg/m3]	mass density, 333.15 K [kg/m3]	mass density, 343.15 K [kg/m3]	viscosity, 303.15 K [mPa·s]	viscosity, 313.15 K [mPa·s]	viscosity, 323.15 K [mPa·s]	viscosity, 333.15 K [mPa·s]	viscosity, 343.15 K [mPa·s]
101 kPa	–	–	–	0.89	0.6531	0.547	0.466	0.4049
101.3 kPa	988.04	983.12	977.77	–	–	–	–	–
